Results on nine compounds are retold here after article PMC3517147 (Chembiochem : a European journal of chemical biology, 2012).

Test [1] concerns the target T1, AICAR Tfase activity of avian ATIC (Gallus gallus, UniProt P31335).
T1 sequence (P31335 1-593): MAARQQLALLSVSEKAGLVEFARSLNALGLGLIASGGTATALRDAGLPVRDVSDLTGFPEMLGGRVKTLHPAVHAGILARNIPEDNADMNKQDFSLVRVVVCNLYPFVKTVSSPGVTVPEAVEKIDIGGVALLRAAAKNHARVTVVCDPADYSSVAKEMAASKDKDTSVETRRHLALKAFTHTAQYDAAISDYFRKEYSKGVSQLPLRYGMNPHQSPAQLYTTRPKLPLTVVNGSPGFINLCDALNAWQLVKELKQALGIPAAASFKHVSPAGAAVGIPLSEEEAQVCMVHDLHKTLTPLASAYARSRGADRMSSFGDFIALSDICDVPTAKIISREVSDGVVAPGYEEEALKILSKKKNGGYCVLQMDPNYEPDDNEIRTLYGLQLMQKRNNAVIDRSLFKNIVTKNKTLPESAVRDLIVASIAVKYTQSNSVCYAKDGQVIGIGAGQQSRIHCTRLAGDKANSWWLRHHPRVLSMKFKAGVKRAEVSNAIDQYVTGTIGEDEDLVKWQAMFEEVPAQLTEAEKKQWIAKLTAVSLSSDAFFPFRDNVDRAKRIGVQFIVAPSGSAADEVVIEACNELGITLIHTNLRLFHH
Put plainly: AICAR Tfase inhibition assay.

Test [2] has as its target human ATIC (Homo sapiens, UniProt P31939). Put plainly: AICAR Tfase inhibition assay with human ATIC. Type of test: biochemical.
The target of test [3] is T2, AICAR Tfase activity of ATIC (Gallus gallus, UniProt P31335).
T2 sequence (P31335 1-593): T1 sequence (P31335 1-593)
Put plainly: AICAR Tfase inhibition in the presence of BSA. Type of test: biochemical. The conditions noted are these: compound at 10 μM and 50 μM; 1 mg/mL and 10 mg/mL BSA.

The target of test [4] is human ATIC homodimer (Homo sapiens, UniProt P31939). Put plainly: Size exclusion chromatography of ATIC monomer/dimer ratio. Type of test: binding. To be noted: 50 μM ATIC treated with 10 μM compound. A general note: In gel filtration, larger molecules generally elute earlier.
For test [5], the system named is MCF-7 cells. Put plainly: MTS-based cell proliferation. To be noted: 48 hours after dosing.
The test system of test [6] is MCF-7 cells. Briefly: Live-cell imaging. To be noted: MCF-7, 250 μM. In kind it is cell-based.

Where two headings read alike, the source gives them in different places. Peptide text beside a SMILES is read from it.

human ATIC, sequence (P31939 whole entry): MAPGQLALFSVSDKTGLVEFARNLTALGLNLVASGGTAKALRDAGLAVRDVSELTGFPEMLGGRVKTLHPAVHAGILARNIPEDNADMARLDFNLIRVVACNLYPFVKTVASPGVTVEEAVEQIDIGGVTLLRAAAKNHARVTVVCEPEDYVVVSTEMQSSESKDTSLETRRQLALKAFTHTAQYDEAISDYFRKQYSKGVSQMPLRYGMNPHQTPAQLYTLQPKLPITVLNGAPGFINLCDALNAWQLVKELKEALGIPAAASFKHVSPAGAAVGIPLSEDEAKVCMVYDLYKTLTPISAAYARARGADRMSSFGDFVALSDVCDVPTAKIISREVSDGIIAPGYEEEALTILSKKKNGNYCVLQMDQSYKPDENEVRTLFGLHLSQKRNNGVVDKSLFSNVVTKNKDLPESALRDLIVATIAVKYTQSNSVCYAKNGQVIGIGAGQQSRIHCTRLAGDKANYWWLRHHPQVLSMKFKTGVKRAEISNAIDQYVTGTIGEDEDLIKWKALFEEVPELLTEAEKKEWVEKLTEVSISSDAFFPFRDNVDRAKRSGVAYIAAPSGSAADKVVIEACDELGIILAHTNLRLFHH
human ATIC homodimer, sequence (P31939 whole entry): as above

On to `CC(C)[C@@H]1NC(=O)[C@H](CC(N)=O)NC(=O)[C@H](C)NC(=O)[C@H](Cc2ccc(O)cc2)NC(=O)[C@H](CCCNC(=N)N)NC(=O)[C@H](CS)NC1=O` [Compound 5, cyclo-CRYANV] (cyclo(ANVCRY)), for which the affinity in test [1], expressed as Ki, was 38 ± 5 µM. As to `CC(C)[C@@H]1NC(=O)[C@H](CC(N)=O)NC(=O)[C@H](Cc2ccccc2)NC(=O)[C@H](Cc2ccc(O)cc2)NC(=O)[C@H](C)NC(=O)[C@H](CS)NC1=O` [Compound 3, cyclo-CAYFNV] (cyclo(AYFNVC)), the Ki in test [1] is greater than 2500 µM. Regarding `CC(C)[C@@H]1NC(=O)[C@H](CC(N)=O)NC(=O)[C@H](Cc2ccccc2)NC(=O)[C@H](Cc2ccc(O)cc2)NC(=O)[C@H](CCCNC(=N)N)NC(=O)[C@H](CS)NC1=O` [Compound 1, cyclo-CRYFNV] (cyclo(RYFNVC)), in test [2], the “Ki with human ATIC compared to the avian enzyme” value is recorded as “same Ki (within error)”.

As for `CCN(CC)C(=O)[C@H](Cc1ccc([N+](=O)[O-])cc1)NC(=O)[C@H](CCCNC(=N)N)NC(C)=O` [Compound 14, Acetyl-Arg-CONH-Phe(4-NO2)-L-Diethylamide], the “Ki with human ATIC compared to the avian enzyme” value in test [2] is given as “same Ki (within error)”. The “AICAR Tfase inhibition in presence of BSA” value in test [3] is reported as “continued to inhibit the reaction to a similar extent as observed in the absence of BSA”. For the same compound, the “ATIC species observed by size exclusion chromatography” value in test [4] is given as “presence of monomeric ATIC”. The same compound came in with an inhibition of viability in test [5] (MCF-7, 500 μM (maximum dose)) of 40%. The “effect on viability” value in test [5] (MCF-7, 100, 250 or 500 μM) is given as “dose-dependent reduction in viability”. For the same compound, in test [6] (analysis of videos over 72 hours), the “mechanism of effect on cell numbers” value is given as “reduction in cell division rates, rather than an increase in cell death”. In test [6] (time-lapse microscopy over 72 hours), the “reduction in proliferation compared to control-treated cells” value is listed as 35%. Moreover, in test [1] (Table 2, RY analogues, avian ATIC, 25 °C), affinity was put at a Ki of 0.685 ± 0.035 µM. Also, the “fold improvement in activity compared to capped RY dimer 8” value in test [1] (from Ki values of Table 2) is 120 fold. Regarding `CC(C)[C@@H]1NC(=O)[C@H](C)NC(=O)[C@H](Cc2ccccc2)NC(=O)[C@H](Cc2ccc(O)cc2)NC(=O)[C@H](CCCNC(=N)N)NC(=O)[C@H](CS)NC1=O` [Compound 6, cyclo-CRYFAV] (cyclo(AVCRYF)), the Ki in test [1] was 368 ± 29 µM. Same read-out and setting: the value for `C[C@@H]1NC(=O)[C@H](CC(N)=O)NC(=O)[C@H](Cc2ccccc2)NC(=O)[C@H](Cc2ccc(O)cc2)NC(=O)[C@H](CCCNC(=N)N)NC(=O)[C@H](CS)NC1=O` [Compound 7, cyclo-CRYFNA] (cyclo(ACRYFN)) was 252 ± 22 µM; that for `CC(C)[C@@H]1NC(=O)[C@H](CC(N)=O)NC(=O)[C@H](Cc2ccccc2)NC(=O)[C@H](Cc2ccc(O)cc2)NC(=O)[C@H](CCCNC(=N)N)NC(=O)[C@H](C)NC1=O` [Compound 2, cyclo-ARYFNV] (cyclo(ARYFNV)) was 651 ± 25 µM. linear-CRYFNV [reference compound]: the “fold loss of activity compared to cyclo-CRYFNV” value in test [1] (from Ki values) was 8 fold. In turn, `CC(C)[C@@H]1NC(=O)[C@H](CC(N)=O)NC(=O)[C@H](Cc2ccccc2)NC(=O)[C@H](C)NC(=O)[C@H](CCCNC(=N)N)NC(=O)[C@H](CS)NC1=O` [Compound 4, cyclo-CRAFNV] (cyclo(AFNVCR)) registered a Ki in test [1] greater than 2500 µM.

Broadly, the Ki is the equilibrium dissociation constant of an inhibitor or competing ligand from its target. A higher Ki goes with a looser hold on the target.
